According to US9777017B2, “Tricyclic fused thiophene derivatives as JAK inhibitors” (Incyte Corporation, priority 2012, dated 2017):

Tests used:
Type in all cases: biochemical
human JAK2 = human JAK2 (Homo sapiens (Human), UniProt O60674); experiment: In vitro JAK kinase assay (HTRF, phosphorylation of a biotinylated peptide), JAK2; set-up: key to JAK2 IC50 (nM): +indicates an IC50 of ≦100 nM; ++indicates an IC50 of ≦1000 nM; +++indicates an IC50 of ≦2000 nM; ++++indicates an IC50 of >2000 nM; +++++indicates that the IC50 was greater than the highest concentration tested; details: 1 mM ATP
Description: (§1) Compounds herein were tested for inhibitory activity of JAK targets according to the following in vitro assay described in Park et al., Analytical Biochemistry 1999, 269, 94-104. The catalytic domains of human JAK1 (a.a. 837-1142), JAK2 (a.a. 828-1132) and JAK3 (a.a. 781-1124) were expressed using baculovirus in insect cells and purified. The catalytic activity of JAK1, JAK2 or JAK3 was assayed by measuring the phosphorylation of a biotinylated peptide. The phosphorylated peptide was detected by homogenous time resolved fluorescence (HTRF). IC50s of compounds were measured for each kinase in the 40 μL reactions that contain the enzyme, ATP and 500 nM peptide in 50 mM Tris (pH 7.8) buffer with 100 mM NaCl, 5 mM DTT, and 0.1 mg/mL (0.01%) BSA. For the 1 mM IC50 measurements, ATP concentration in the reactions was 1 mM. Reactions were carried out at room temperature for 1 hour and then stopped with 20 μL 45 mM EDTA, 300 nM SA-APC, 6 nM Eu-Py20 in assay buffer (Perkin Elmer, Boston, Mass.). Binding to the Europium labeled antibody took place for 40 minutes and HTRF signal was measured on a PHERA star plate reader (BMG, Cary, N.C.). The Example compounds were each tested in the Example A assay (see Table 1 for data for the compounds of the examples as tested by the assay of Example A at 1 mM ATP).

human JAK1 [1] = experiment: In vitro JAK kinase assay (HTRF, phosphorylation of a biotinylated peptide), JAK1; details: ratio of IC50s, 1 mM ATP
Description: as §1

human JAK1 [2] = target: human JAK1 (Homo sapiens, UniProt P23458); experiment: as above; details: 1 mM ATP
Description: as §1

Sequence of human JAK2 (O60674 828-1132): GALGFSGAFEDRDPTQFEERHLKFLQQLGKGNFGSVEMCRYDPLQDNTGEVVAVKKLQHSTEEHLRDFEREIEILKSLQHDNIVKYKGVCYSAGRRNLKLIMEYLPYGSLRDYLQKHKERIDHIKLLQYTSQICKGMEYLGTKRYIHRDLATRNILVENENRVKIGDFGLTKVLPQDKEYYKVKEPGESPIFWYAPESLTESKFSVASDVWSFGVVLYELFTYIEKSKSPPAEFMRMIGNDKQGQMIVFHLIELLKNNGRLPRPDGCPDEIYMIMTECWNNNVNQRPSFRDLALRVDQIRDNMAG

SMILES	IC50 (human JAK2) [µM]	JAK2/JAK1 (human JAK1 [1])	IC50 (human JAK1 [2]) [µM]	JAK2 IC50 (nM) (human JAK2)
C[C@@H](O)c1nc2cnc3ccsc3c2n1C1CCN(CCC#N)CC1 [Example 16, 3-(4-{2-[(1R)-1-Hydroxyethyl]-1H-imidazo[4,5-d]thieno[3,2-b]pyridin-1-yl}piperidin-1-yl)propanenitrile]	> 2	>10	≤ 1	
N#CC[C@H]1CC[C@H](n2c(CO)nc3cnc4ccsc4c32)CC1 [Example 17, {trans-4-[2-(Hydroxymethyl)-1H-imidazo[4,5-b]thieno[3,2-b]pyridin-1-yl]cyclohexyl}acetonitrile]	≤ 1	>10	≤ 0.1	
CS(=O)(=O)NCc1nc2cnc3ccsc3c2n1[C@H]1CC[C@H](CC#N)CC1 [Example 18, N-({1-[trans-4-(Cyanomethyl)cyclohexyl]-1H-imidazo[4,5-d]thieno[3,2-b]pyridin-2-yl}methyl)methanesulfonamide]	≤ 1	>10	≤ 0.1	
C[C@@H](O)c1nc2cnc3ccsc3c2n1[C@H]1CCC(CO)OC1 (stereo partly drawn) [Example 19, (1R)-1-{1-[(3S)-6-(Hydroxymethyl)tetrahydro-2H-pyran-3-yl]-1H-imidazo[4,5-d]thieno[3,2-b]pyridin-2-yl}ethanol]		>10	≤ 1	+++++
C[C@@H](O)c1nc2cnc3ccsc3c2n1[C@H]1CC[C@H](CC#N)OC1 [Example 20, ((2R,5S)-5-{2-[(1R)-1-Hydroxyethyl]-1H-imidazo[4,5-d]thieno[3,2-b]pyridin-1-yl}tetrahydro-2H-pyran-2-yl)acetonitrile]	≤ 1	>10	≤ 0.1	
C[C@@H](O)c1nc2cnc3ccsc3c2n1[C@H]1CC[C@@H](CC#N)OC1 [Example 21, ((2S,5S)-5-{2-[(1R)-1-Hydroxyethyl]-1H-imidazo[4,5-d]thieno[3,2-b]pyridin-1-yl}tetrahydro-2H-pyran-2-yl)acetonitrile]		>10	≤ 1	+++++
CS(=O)(=O)NCc1nc2cnc3ccsc3c2n1[C@H]1CC2CCC1C2 (stereo partly drawn) [Example 22, N-((1-((2S)-Bicyclo[2.2.1]heptan-2-yl)-1H-imidazo[4,5-d]thieno[3,2-b]pyridin-2-yl)methyl)methanesulfonamide]		>4	≤ 1	+++++
C[C@@H](O)c1cc2cnc3ccsc3c2n1[C@H]1CC[C@H](CC#N)CC1 [Example 23, (trans-4-{7-[(1R)-1-Hydroxyethyl]-8H-pyrrolo[2,3-d]thieno[3,2-b]pyridin-8-yl}cyclohexyl)acetonitrile]	≤ 1	>10	≤ 0.1	
N#CC[C@H]1CC[C@H](n2/c(=N/C#N)[nH]c3cnc4ccsc4c32)CC1.O=C(O)C(F)(F)F [Example 25, {(2E)-1-[trans-4-(Cyanomethyl)cyclohexyl]-1,3-dihydro-2H-imidazo[4,5-d]thieno[3,2-b]pyridin-2-ylidene}cyanamide trifluoroacetate]	≤ 1	>6	≤ 0.1	
N#CC[C@H]1CC[C@H](n2c(C3CC3)nc3cnc4ccsc4c32)CC1 [Example 26, [trans-4-(2-Cyclopropyl-1H-imidazo[4,5-b]thieno[3,2-b]pyridin-1-yl)cyclohexyl]acetonitrile]	≤ 1	>10	≤ 0.1	
CC(C)c1nc2cnc3ccsc3c2n1[C@H]1CC[C@H](CC#N)CC1 [Example 27, [trans-4-(2-Isopropyl-1H-imidazo[4,5-d]thieno[3,2-b]pyridin-1-yl)cyclohexyl]acetonitrile]	≤ 1	>10	≤ 0.1	
N#CC[C@H]1CC[C@H](n2c(C3CNC3)nc3cnc4ccsc4c32)CC1 [Example 28, [trans-4-(2-Azetidin-3-yl-1H-imidazo[4,5-d]thieno[3,2-b]pyridin-1-yl)cyclohexyl]acetonitrile]		>7	≤ 2	+++++
CN1CC(c2nc3cnc4ccsc4c3n2[C@H]2CC[C@H](CC#N)CC2)C1 [Example 29, {trans-4-[2-(1-Methylazetidin-3-yl)-1H-imidazo[4,5-d]thieno[3,2-b]pyridin-1-yl]cyclohexyl}acetonitrile]	≤ 2	>9	≤ 1	
C[C@@H](O)c1nc2cnc3ccsc3c2n1[C@@H]1CC[C@@H](CC#N)OC1 [Example 44, ((2S,5R)-5-{2-[(1R)-1-Hydroxyethyl]-1H-imidazo[4,5-b]thieno[3,2-b]pyridin-1-yl}tetrahydro-2H-pyran-2-yl)acetonitrile]		>10	≤ 1	+++++
C[C@H](O)c1nc2cnc3ccsc3c2n1[C@H]1CC[C@H](CC#N)OC1 [Example 45, ((2R,5S)-5-{2-[(1S)-1-Hydroxyethyl]-1H-imidazo[4,5-d]thieno[3,2-b]pyridin-1-yl}tetrahydro-2H-pyran-2-yl)acetonitrile]	> 2	>10	≤ 0.1	

Continued, values first:

IC50 (human JAK2) [µM]	JAK2/JAK1 (human JAK1 [1])	IC50 (human JAK1 [2]) [µM]	JAK2 IC50 (nM) (human JAK2)	SMILES
	>10	≤ 1	+++++	CCNC(=O)C[C@H]1CC[C@H](n2c([C@@H](C)O)nc3cnc4ccsc4c32)CC1 [Example 31, N-Ethyl-2-(trans-4-{2-[(1R)-1-hydroxyethyl]-1H-imidazo[4,5-d]thieno[3,2-b]pyridin-1-yl}cyclohexyl)acetamide]
> 2	>10	≤ 0.1		C[C@@H](O)c1nc2cnc3ccsc3c2n1C1CCCC(CCC#N)C1 (stereo partly drawn) [Example 32, 3-(3-{2-[(1R)-1-Hydroxyethyl]-1H-imidazo[4,5-d]thieno[3,2-b]pyridin-1-yl}cyclohexyl)propanenitrile]
≤ 1	>7	≤ 0.1		Cc1nc2cnc3ccsc3n2c1-c1ccc(CC#N)cc1 [Example 33, [4-(7-Methylimidazo[1,2-a]thieno[3,2-e]pyrazin-8-yl)phenyl]acetonitrile]
≤ 0.1	>10	≤ 0.1		Cc1nc2cnc3ccsc3c2n1[C@H]1CC[C@H](CC#N)OC1 [Example 38, [(2R,5S)-5-(2-Methyl-1H-imidazo[4,5-d]thieno[3,2-b]pyridin-1-yl)tetrahydro-2H-pyran-2-yl]acetonitrile]
≤ 1	>10	≤ 0.1		CCc1nc2cnc3ccsc3c2n1[C@H]1CC[C@H](CC#N)OC1 [Example 39, [(2R,5S)-5-(2-Ethyl-1H-imidazo[4,5-d]thieno[3,2-b]pyridin-1-yl)tetrahydro-2H-pyran-2-yl]acetonitrile]
≤ 1	>10	≤ 0.1		CC(C)c1nc2cnc3ccsc3c2n1[C@H]1CC[C@H](CC#N)OC1 [Example 42, [(2R,5S)-5-(2-Isopropyl-1H-imidazo[4,5-d]thieno[3,2-b]pyridin-1-yl)tetrahydro-2H-pyran-2-yl]acetonitrile]
≤ 1	>10	≤ 0.1		N#CC[C@H]1CC[C@H](n2c(C3CC3)nc3cnc4ccsc4c32)CO1 [Example 43, [(2R,5S)-5-(2-Cyclopropyl-1H-imidazo[4,5-d]thieno[3,2-b]pyridin-1-yl)tetrahydro-2H-pyran-2-yl]acetonitrile]
≤ 1	>10	≤ 0.1		CCc1nc2cnc3ccsc3c2n1[C@H]1CC[C@H](CC#N)CC1 [Example 47, [trans-4-(2-Ethyl-1H-imidazo[4,5-d]thieno[3,2-b]pyridin-1-yl)cyclohexyl]acetonitrile]
≤ 0.1	>7	≤ 0.1		Cc1nc2cnc3ccsc3c2n1[C@H]1CC[C@H](CC#N)CC1 [Example 48, [trans-4-(2-Methyl-1H-imidazo[4,5-d]thieno[3,2-b]pyridin-1-yl)cyclohexyl]acetonitrile]
	>10	≤ 1	+++++	C[C@@H](O)c1nc2cnc3ccsc3c2n1[C@H]1CC[C@@H](CC#N)C1.O=C(O)C(F)(F)F [Example 49, ((4R,3S)-3-{2-[(1R)-1-Hydroxyethyl]-1H-imidazo[4,5-d]thieno[3,2-b]pyridin-1-yl}cyclopentyl)acetonitrile trifluoroacetate]
